Source: article PMC12042115 (mLife, 2025)
Where two headings read alike, the source gives them in different places.

Tested on: wild‐type BCG cells
Format: cell-based, M. bovis BCG
Details: for Mean Ratio: GDI5755_2d vs DMSO_2d; for Mean Ratio / Mean Ratio (GDI5755_2d vs DMSO_2d): up-regulated; for Mean_Ratio (GDI5755_3d vs DMSO_3d): down-regulated, 3 d; for Mean Ratio (GDI5755_2d vs DMSO_2d): 2d

O=C(Oc1ccc(Cl)cc1)c1ccc(N2CCOCC2)c([N+](=O)[O-])c1 [GDI‐5755]
Mean Ratio (protein A0A0H3M8Y9 Cyclase): 1.26 | Mean Ratio (protein A0A0H3M9B9 Acetoacetate decarboxylase): 1.28 | Mean Ratio (protein A0A0H3M9C3 DUF3039 domain-containing protein): 1.28 | Mean Ratio (protein A0A0H3M9D8 Possible conserved membrane alanine rich protein): 1.31 | Mean Ratio (protein A0A0H3M9I1 Probable conserved secreted protein): 1.30 | Mean Ratio (protein A0A0H3M9I4 Probable membrane glycine and proline rich protein): 1.25 | Mean Ratio (protein A0A0H3M9K0 Probable penicillin-binding protein pbpA): 1.25 | Mean_Ratio (GDI5755_3d vs DMSO_3d) (protein A0A0H3M9N6, BCG_0093 (Rv0062), Glucanase): 0.7 | Mean_Ratio (GDI5755_3d vs DMSO_3d) (protein A0A0H3M9Q0, BCG_2848c (Rv2828A), COGs COG0840): 0.7 | Mean Ratio (protein A0A0H3M9S4 Carrier domain-containing protein): 1.26 | Mean Ratio (GDI5755_2d vs DMSO_2d) (protein A0A0H3M9U5 Phosphatidate cytidylyltransferase): 1.38 | Mean_Ratio (GDI5755_3d vs DMSO_3d) (protein A0A0H3M9Z8, BCG_2971c (Rv2950c), Probable fatty-acid-CoA ligase fadD29): 0.7 | Mean Ratio (protein A0A0H3M9Z9 Probable conserved transmembrane protein rich in alanine and arginine and proline): 1.28 | Mean Ratio (protein A0A0H3M143 peptidoglycan glycosyltransferase): 1.26 | Mean_Ratio (GDI5755_3d vs DMSO_3d) (protein A0A0H3M233, BCG_0693c (Rv0644c), Methoxy mycolic acid synthase 2 mmaA2): 0.7 | Mean_Ratio (GDI5755_3d vs DMSO_3d) (protein A0A0H3M245, BCG_0704 (Rv0655), Possible ribonucleotide-transport ATP-binding protein ABC transporter mkl): 0.7 | Mean Ratio (GDI5755_2d vs DMSO_2d) (protein A0A0H3M252 Probable glutamine-binding lipoprotein glnH): 1.33 | Mean Ratio (GDI5755_2d vs DMSO_2d) (protein A0A0H3M331 Uncharacterized protein): 1.34 | Mean_Ratio (GDI5755_3d vs DMSO_3d) (protein A0A0H3M363, BCG_0875c (Rv0822c), Cell envelope-associated transcriptional attenuator LytR-CpsA-Psr, subfamily A1): 0.752 | Mean_Ratio (GDI5755_3d vs DMSO_3d) (protein A0A0H3M469, BCG_1204c (MRA_1152), Probable enoyl-CoA hydratase echA10): 0.742 | Mean_Ratio (GDI5755_3d vs DMSO_3d) (protein A0A0H3M476, BCG_0711c (Rv0662c), Ribbon-helix-helix protein CopG domain-containing protein): 0.7 | Mean Ratio (protein A0A0H3M482 Conserved transmembrane protein): 1.29 | Mean_Ratio (GDI5755_3d vs DMSO_3d) (protein A0A0H3M495, BCG_1238c (Rv1175c), Probable NADPH dependent 2,4-dienoyl-CoA reductase fadH): 0.758 | Mean Ratio (protein A0A0H3M519 Probable conserved lipoprotein): 1.28 | Mean Ratio (protein A0A0H3M628 Probable lipoprotein lppP): 1.31 | Mean Ratio (GDI5755_2d vs DMSO_2d) (protein A0A0H3M639 Probable metal cation transporter P-type atpase G ctpG): 1.33 | Mean Ratio (GDI5755_2d vs DMSO_2d) (protein A0A0H3M660 Conserved membrane protein): 1.39 | Mean Ratio (protein A0A0H3M672 Sirohydrochlorin cobaltochelatase): 1.28 | Mean Ratio (protein A0A0H3M707 Probable conserved integral membrane alanine and valine and leucine rich protein): 1.26 | Mean_Ratio (GDI5755_3d vs DMSO_3d) (protein A0A0H3M735, BCG_2390c (Rv2376c), Low molecular weight antigen cfp2): 0.7 | Mean_Ratio (GDI5755_3d vs DMSO_3d) (protein A0A0H3M760, BCG_0066 (Rv0035), Probable fatty-acid-coa ligase fadD34): 0.7 | Mean Ratio (protein A0A0H3M769 Lipid/polyisoprenoid-binding YceI-like domain-containing protein): 1.28 | Mean_Ratio (GDI5755_3d vs DMSO_3d) (protein A0A0H3M827, BCG_2840c (Rv2821c), CRISPR system Cms endoribonuclease Csm3): 0.7 | Mean_Ratio (GDI5755_3d vs DMSO_3d) (protein A0A0H3M844, BCG_2251 (Rv2234), Phosphotyrosine protein phosphatase ptpA): 0.7 | Mean Ratio (protein A0A0H3M847 Probable conserved transmembrane alanine rich protein): 1.26 | Mean_Ratio (GDI5755_3d vs DMSO_3d) (protein A0A0H3M848, BCG_3111 (Rv3086), alcohol dehydrogenase, adhD): 0.761 | Mean Ratio (GDI5755_2d vs DMSO_2d) (protein A0A0H3M855 Acyl carrier protein): 1.34 | Mean Ratio (protein A0A0H3M918 Protein-export membrane protein SecF): 1.28 | Mean_Ratio (GDI5755_3d vs DMSO_3d) (protein A0A0H3M922, BCG_3278c (Rv3249c), Possible transcriptional regulatory protein (Probably tetR-family)): 0.757 | Mean_Ratio (GDI5755_3d vs DMSO_3d) (protein A0A0H3M964, BCG_1004c (Rv0950c), Peptidase M23 domain-containing protein): 0.7 | Mean Ratio (protein A0A0H3M969 HNH nuclease domain-containing protein): 1.26 | Mean_Ratio (GDI5755_3d vs DMSO_3d) (protein A0A0H3M984, BCG_3389c (Rv3323c), Probable moaD-moaE fusion protein moaX): 0.756 | Mean Ratio (GDI5755_2d vs DMSO_2d) (protein A0A0H3MA04 ATP-dependent zinc metalloprotease FtsH): 1.34 | Mean_Ratio (GDI5755_3d vs DMSO_3d) (protein A0A0H3MA19, BCG_0251 (Rv0214), Probable fatty-acid-CoA ligase fadD4): 0.739 | Mean_Ratio (GDI5755_3d vs DMSO_3d) (protein A0A0H3MA36, BCG_3704c (Rv3646c), DNA topoisomerase 1): 0.7 | Mean_Ratio (GDI5755_3d vs DMSO_3d) (protein A0A0H3MA81, BCG_1461c (Rv1400c), Probable lipase lipH): 0.751 | Mean Ratio (protein A0A0H3MAA3 Possible conserved membrane protein): 1.25 | Mean_Ratio (GDI5755_3d vs DMSO_3d) (protein A0A0H3MAA7, BCG_0352 (Rv0312), Conserved hypothetical proline and threonine rich protein): 0.739 | Mean Ratio (GDI5755_2d vs DMSO_2d) (protein A0A0H3MAB2 Conserved membrane protein): 1.33 | Mean_Ratio (GDI5755_3d vs DMSO_3d) (protein A0A0H3MAC6, BCG_0385c (Rv0346c), l-asparagine permease ansP2): 0.7 | Mean Ratio (GDI5755_2d vs DMSO_2d) (protein A0A0H3MAC8 Possible conserved transmembrane protein): 1.38 | Mean_Ratio (GDI5755_3d vs DMSO_3d) (protein A0A0H3MAD2, BCG_0398c (Rv0360c), DUF3151 domain-containing protein): 0.7 | Mean Ratio (protein A0A0H3MAE2 Probable carbon monoxyde dehydrogenase (Medium chain)): 1.31 | Mean Ratio (protein A0A0H3MAF8 Serine/threonine-protein kinase PknG): 1.26 | Mean_Ratio (GDI5755_3d vs DMSO_3d) (protein A0A0H3MAI2, BCG_0498 (Rv0458), Probable aldehyde dehydrogenase): 0.7 | Mean_Ratio (GDI5755_3d vs DMSO_3d) (protein A0A0H3MAI6, BCG_3192 (Rv3168), Aminoglycoside phosphotransferase domain-containing protein): 0.7 | Mean_Ratio (GDI5755_3d vs DMSO_3d) (protein A0A0H3MAK6, BCG_0543 (Rv0500A), Helix-turn-helix domain-containing protein): 0.757 | Mean_Ratio (GDI5755_3d vs DMSO_3d) (protein A0A0H3MAL3, BCG_3212c (Rv3190c), Restriction endonuclease): 0.7 | Mean Ratio (protein A0A0H3MAP0 Conserved hypothetical alanine valine rich protein): 1.28 | Mean Ratio (protein A0A0H3MAW6 Uncharacterized protein): 1.27 | Mean Ratio (protein A0A0H3MAY5 (BCG_0774) Possible protease IV sppA (Endopeptidase IV)): 1.28 | Mean_Ratio (GDI5755_3d vs DMSO_3d) (protein A0A0H3MB28, BCG_3433c (Rv3361c), Pentapeptide repeat protein MfpA): 0.741 | Mean_Ratio (GDI5755_3d vs DMSO_3d) (protein A0A0H3MB50, BCG_3459 (Rv3390), Probable conserved lipoprotein lpqD): 0.7 | Mean_Ratio (GDI5755_3d vs DMSO_3d) (protein A0A0H3MB93, BCG_3517 (Rv3451), Cutinase): 0.7 | Mean_Ratio (GDI5755_3d vs DMSO_3d) (protein A0A0H3MB98, BCG_1906c (Rv1870c), Endonuclease): 0.7 | Mean_Ratio (GDI5755_3d vs DMSO_3d) (protein A0A0H3MBC9, BCG_3565c (Rv3501c), Conserved hypothetical integral membrane protein yrbE4A): 0.7
